From patent publication US9718808B2, “Inhibitors of the renal outer medullary potassium channel” (Merck Sharp & Dohme Corp., priority 2014, dated 2017) come the findings set out here.

The target of this assay is ROMK (Kir1.1) channel (Homo sapiens (Human), UniProt P48048). Kind of assay: Thallium Flux Assay. Type of assay: cell-based. On the procedure:
A Thallium Flux Assay was performed on each of the final product compounds of the Examples. This assay has been described previously; see, e.g., PCT Published Application WO 2013/062900.

ROMK (Kir1.1) channel, sequence (P48048 whole entry): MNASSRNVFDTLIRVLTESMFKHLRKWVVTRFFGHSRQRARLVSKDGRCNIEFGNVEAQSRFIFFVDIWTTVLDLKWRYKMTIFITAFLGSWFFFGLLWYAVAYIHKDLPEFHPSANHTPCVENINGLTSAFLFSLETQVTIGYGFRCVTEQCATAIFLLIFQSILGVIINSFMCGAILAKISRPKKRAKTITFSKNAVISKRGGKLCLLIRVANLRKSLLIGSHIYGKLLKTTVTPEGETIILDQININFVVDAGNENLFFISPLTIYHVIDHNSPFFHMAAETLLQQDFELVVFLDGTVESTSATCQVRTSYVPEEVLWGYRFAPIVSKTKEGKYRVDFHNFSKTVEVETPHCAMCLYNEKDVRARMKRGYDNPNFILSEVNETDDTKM

For orientation: IC50 means the concentration needed to halve the response being measured. `CC1=C(N2CC[C@]3(CC[C@@H](N(CCO)Cc4ccc(-n5cnnn5)nc4)CC3)C2=O)COC1=O` [Example 130, (5r,8r)-8-(((6-(1H-tetrazol-1-yl)pyridin-3-yl)methyl)(2-hydroxyethyl)amino)-2-(4-methyl-5-oxo-2,5-dihydrofuran-3-yl)-2-azaspiro[4.5]decan-1-one] returned an IC50 of 0.03 µM. This lies in the double-digit nanomolar range.
Then `CC1=C(N2CC[C@]3(CC[C@H](N(C)Cc4ccc5c(c4)Cn4nnnc4-5)CC3)C2=O)COC1=O` [Example 89], with 0.95 µM; and `CC1=C(N2CC[C@]3(CC[C@@H](N(C)Cc4ccc5c(c4)Cn4nnnc4-5)CC3)C2=O)COC1=O` [Example 90], with 0.022 µM.
To `CC1=C(N2CC[C@]3(CC[C@@H](N(C)Cc4ccc(-n5cnnn5)nn4)CC3)C2=O)COC1=O` [Example 80, (5r,8r)-2-(4-methyl-5-oxo-2,5-dihydrofuran-3-yl)-8-(methyl{[6-(1H-tetrazol-1-yl)pyridazin-3-yl]methyl}amino)-2-azaspiro[4.5]decan-1-one] belongs 0.019 µM; to `CC1=C(N2CC[C@]3(CC[C@@H](N(C)[C@H](CO)c4ccc(-n5cnnn5)nc4)CC3)C2=O)COC1=O` [Example 86], 0.48 µM; to `CC1=C(N2CC[C@]3(CC[C@@H](N(C)[C@@H](CO)c4ccc(-n5cnnn5)nc4)CC3)C2=O)COC1=O` [Example 102], 0.3 µM.
With `CC1=C(N2CC[C@]3(CC[C@H](NCc4ccc(-n5ncnn5)cc4)CC3)C2=O)COC1=O` [Example 40, (5s,8s)-2-(4-methyl-5-oxo-2,5-dihydrofuran-3-yl)-8-{[4-(2H-tetrazol-2-yl)benzyl]amino}-2-azaspiro[4.5]decan-1-one], the IC50 came out at 0.11 µM.
`CC1=C(N2CC[C@]3(CC[C@@H](NCc4ccc5c(c4)Cn4nnnc4-5)CC3)C2=O)COC1=O` [Example 11, (5r,8r)-2-(4-methyl-5-oxo-2,5-dihydrofuran-3-yl)-8-[(5H-tetrazolo[5,1-a]isoindol-7-ylmethyl)amino]-2-azaspiro[4.5]decan-1-one] gave an IC50 of 0.11 µM.
Take `CC1=C(N2CC[C@]3(CC[C@H](N(C)[C@@H](CO)c4ccc(-n5cnnn5)nc4)CC3)C2=O)COC1=O` [Example 101]: the IC50 is 0.29 µM.
As to `CCN(Cc1ccc(-n2cnnn2)nc1)[C@H]1CC[C@]2(CCN(C3=C(C)C(=O)OC3)C2=O)CC1` [Example 134], the concentration for half-maximal inhibition (IC50) amounted to 0.47 µM.
Then `CC1=C(N2CC[C@]3(CC[C@@](C)(N(C)Cc4ccc(-n5cnnn5)nn4)CC3)C2=O)COC1=O` [Example 116], with 0.024 µM.
`CCN(Cc1ccc(-n2cnnn2)cn1)[C@H]1CC[C@]2(CCN(C3=C(C)C(=O)OC3)C2=O)CC1` [Example 138] displayed an IC50 of 0.034 µM. This IC50 and that of the compound before are within 1.5-fold of each other.
Then `CC1=C(N2CC[C@]3(CC[C@@H](N[C@H](C)c4cnc(-n5cnnn5)cn4)CC3)C2=O)COC1=O` [Example 24, (5R,8r)-2-(4-methyl-5-oxo-2,5-dihydrofuran-3-yl)-8-({(1R)-1-[5-(1H-tetrazol-1-yl)pyrazin-2-yl]ethyl}amino)-2-azaspiro[4.5]decan-1-one], with 0.12 µM; and `CC1=C(N2C(=O)[C@]3(CC[C@H](NCc4ccc5c(c4)Cn4nnnc4-5)CC3)C[C@@H]2C)COC1=O` [Example 56, (3S,5r,8S)-8-(((5H-tetrazolo[5,1-a]isoindol-7-yl)methyl)amino)-3-methyl-2-(4-methyl-5-oxo-2,5-dihydrofuran-3-yl)-2-azaspiro[4.5]decan-1-one], with 0.52 µM.
To `CC1=C(N2CC[C@]3(CC[C@@H](NCc4ccc(-n5cnnn5)cc4)CC3)C2=O)COC1=O` [Example 44, (5r,8r)-2-(4-methyl-5-oxo-2,5-dihydrofuran-3-yl)-8-{[4-(1H-tetrazol-1-yl)benzyl]amino}-2-azaspiro[4.5]decan-1-one] belongs 0.0031 µM.
To `CC1=C(N2CC[C@]3(CC[C@](C)(NCc4cnc(-n5cnnn5)cn4)CC3)C2=O)COC1=O` [Example 68, (5s,8s)-8-(((5-(1H-tetrazol-1-yl)pyrazin-2-yl)methyl)amino)-8-methyl-2-(4-methyl-5-oxo-2,5-dihydrofuran-3-yl)-2-azaspiro[4.5]decan-1-one] belongs 0.14 µM.
In turn, `CC1=C(N2CC[C@]3(CC[C@@](C)(NCc4cnc(-n5cnnn5)cn4)CC3)C2=O)COC1=O` [Example 69, (5r,8r)-8-(((5-(1H-tetrazol-1-yl)pyrazin-2-yl)methyl)amino)-8-methyl-2-(4-methyl-5-oxo-2,5-dihydrofuran-3-yl)-2-azaspiro[4.5]decan-1-one] displayed an IC50 of 0.015 µM.
To `CC1=C(N2CC[C@]3(CC[C@@H](NCc4ccc5c(c4F)Cn4nnnc4-5)CC3)C2=O)COC1=O` [Example 59, (5r,8r)-8-(((6-fluoro-5H-tetrazolo[5,1-a]isoindol-7-yl)methyl)amino)-2-(4-methyl-5-oxo-2,5-dihydrofuran-3-yl)-2-azaspiro[4.5]decan-1-one] belongs 0.006 µM; to `CCN(Cc1ccc2c(c1)Cn1nnnc1-2)[C@H]1CC[C@@]2(CCN(C3=C(C)C(=O)OC3)C2=O)CC1` [Example 133], 0.036 µM; to `CC1=C(N2CC[C@]3(CC[C@H](N(CCO)Cc4ccc(-n5cnnn5)cn4)CC3)C2=O)COC1=O` [Example 136], 0.16 µM.
For `CC1=C(N2CC[C@]3(CC[C@@H](NCc4cc5c(cc4C)-c4nnnn4C5)CC3)C2=O)COC1=O` [Example 61, (5r,8r)-2-(4-methyl-5-oxo-2,5-dihydrofuran-3-yl)-8-(((8-methyl-5H-tetrazolo[5,1-a]isoindol-7-yl)methyl)amino)-2-azaspiro[4.5]decan-1-one], half-maximal inhibition (IC50) required 0.023 µM.
Compound `C[C@H]1C[C@]2(CC[C@@H](NCc3cnc(-n4cnnn4)cn3)CC2)C(=O)N1C1=CC(=O)OC1` [Example 66, (3S,5r,8S)-8-(((5-(1H-tetrazol-1-yl)pyrazin-2-yl)methyl)amino)-3-methyl-2-(5-oxo-2,5-dihydrofuran-3-yl)-2-azaspiro[4.5]decan-1-one] yielded an IC50 of 0.007 µM.
In the case of `CC1=C(N2CC[C@]3(CC[C@H](N(C)Cc4ccc(-n5cnnn5)cn4)CC3)C2=O)COC1=O` [Example 87], the IC50 was 0.55 µM.
Compound `O=C1C=C(N2CC[C@]3(CC[C@H](NCc4cnc(-n5cnnn5)cn4)CC3)C2=O)CO1` [Example 73, (5s,8s)-8-(((5-(1H-tetrazol-1-yl)pyrazin-2-yl)methyl)amino)-2-(5-oxo-2,5-dihydrofuran-3-yl)-2-azaspiro[4.5]decan-1-one] had a concentration for half-maximal inhibition (IC50) of 2 µM. Compared with the last compound, the IC50 is about 3.6-fold higher.
To `CC1=C(N2CC[C@]3(CC[C@@H](N[C@@H](C)c4ccc(-n5cnnn5)nc4)CC3)C2=O)COC1=O` [Example 9, (5S,8r)-2-(4-methyl-5-oxo-2,5-dihydrofuran-3-yl)-8-({(1S)-1-[6-(1H-tetrazol-1-yl)pyridin-3-yl]ethyl}amino)-2-azaspiro[4.5]decan-1-one] belongs 0.034 µM.
In the case of `CC1=C(N2C(=O)[C@]3(CC[C@@H](NCc4ccc5c(c4)Cn4nnnc4-5)CC3)C[C@H]2C)COC1=O` [Example 55, (3R,5s,8S)-8-(((5H-tetrazolo[5,1-a]isoindol-7-yl)methyl)amino)-3-methyl-2-(4-methyl-5-oxo-2,5-dihydrofuran-3-yl)-2-azaspiro[4.5]decan-1-one], inhibition was half-maximal at 0.015 µM (IC50).
Then `CC1=C(N2CC[C@]3(CC[C@H](NCc4ccc5c(c4C)COC5=O)CC3)C2=O)COC1=O` [Example 4, (5s,8s)-8-(((4-methyl-1-oxo-1,3-dihydroisobenzofuran-5-yl)methyl)amino)-2-(4-methyl-5-oxo-2,5-dihydrofuran-3-yl)-2-azaspiro[4.5]decan-1-one], with 0.35 µM.
Then `CC1=C(N2C(=O)[C@]3(CC[C@H](NCc4ccc5c(c4)Cn4nnnc4-5)CC3)C[C@H]2C)COC1=O` [Example 60, (3R,5r,8R)-8-(((5H-tetrazolo[5,1-a]isoindol-7-yl)methyl)amino)-3-methyl-2-(4-methyl-5-oxo-2,5-dihydrofuran-3-yl)-2-azaspiro[4.5]decan-1-one], with 0.65 µM; and `CC1=C(N2CC[C@]3(CC[C@@H](N(C)Cc4ccc(-n5cnnn5)nc4)CC3)C2=O)COC1=O` [Example 84], with 0.74 µM; and `CC1=C(N2CC[C@]3(CC[C@@H](NCc4ccc5c(c4)-c4nnnn4C5)CC3)C2=O)COC1=O` [Example 47, (5r,8r)-2-(4-methyl-5-oxo-2,5-dihydrofuran-3-yl)-8-[(5H-tetrazolo[5,1-a]isoindol-8-ylmethyl)amino]-2-azaspiro[4.5]decan-1-one], with 0.55 µM.
To `CC1=C(N2CC[C@]3(CC[C@H](N(C)C[C@H](O)c4ccc5c(c4C)COC5=O)CC3)C2=O)COC1=O` [Example 123] belongs 0.077 µM; to `C[C@@H]1C[C@]2(CC[C@@H](NCc3ccc(-n4cnnn4)nc3)CC2)C(=O)N1C1=CC(=O)OC1` [Example 23, (3R,5r,8R)-3-methyl-2-(5-oxo-2,5-dihydrofuran-3-yl)-8-({[6-(1H-tetrazol-1-yl)pyridin-3-yl]methyl}amino)-2-azaspiro[4.5]decan-1-one], 0.72 µM; to `CC1=C(N2CC[C@]3(CC[C@@H](N[C@@H](C)c4ccc(-n5cnnn5)cn4)CC3)C2=O)COC1=O` [Example 29, (5S,8r)-2-(4-methyl-5-oxo-2,5-dihydrofuran-3-yl)-8-({(1S)-1-[5-(1H-tetrazol-1-yl)pyridin-2-yl]ethyl}amino)-2-azaspiro[4.5]decan-1-one], 0.02 µM.
Consider `CC1=C(N2CC[C@]3(CC[C@@H](N(C)Cc4ccc(-n5cnnn5)cn4)CC3)C2=O)COC1=O` [Example 88], for which the half-inhibitory concentration (IC50) worked out at 0.007 µM.
To `CC1=C(N2CC[C@]3(CC[C@H](NC[C@H](O)c4ccc5c(c4C)COC5=O)CC3)C2=O)COC1=O` [Example 79, (5S,8s)-8-{[(2R)-2-hydroxy-2-(4-methyl-1-oxo-1,3-dihydro-2-benzofuran-5-yl)ethyl]amino}-2-(4-methyl-5-oxo-2,5-dihydrofuran-3-yl)-2-azaspiro[4.5]decan-1-one] belongs 0.28 µM.
Then `CC1=C(N2CC[C@]3(CC[C@@H](NC[C@H](O)c4ccc5c(c4C)COC5=O)CC3)C2=O)COC1=O` [Example 78, (5r,8r)-8-(((R)-2-hydroxy-2-(4-methyl-1-oxo-1,3-dihydroisobenzofuran-5-yl)ethyl)amino)-2-(4-methyl-5-oxo-2,5-dihydrofuran-3-yl)-2-azaspiro[4.5]decan-1-one], with 0.21 µM.
